The species entered for experiment [1] is Mus musculus. Nature of the experiment: Dose required to double the dose of oxotremorine inducing a predetermined (grade 2) tremor intensity in mice; g=Agonist. It is filed as functional, organism-based. Particulars: filed as agonist.
For experiment [2], the target named is Muscarinic acetylcholine receptor. Nature of the experiment: Equilibrium dissociation constant muscarinic receptor complex, measured in guinea pig ileum. Type of experiment: functional, tissue-based, Cavia porcellus.
The species named for experiment [3] is Cavia porcellus. Nature of the experiment: Concentration that elicits 50% of its own maximum contractile response, in guinea pig ileum. Type of experiment: functional.
The species entered for experiment [4] is Cavia porcellus. The experiment in a line: Maximum contractile response relative to that elicited by carbachol, in guinea pig ileum. It is filed as functional.
Experiment [5] is filed under the species Cavia porcellus. The experiment in a line: Efficacy relative to that of carbachol, measured in guinea pig ileum. Type of experiment: functional.
The species entered for experiment [6] is Mus musculus. The experiment in a line: Dose required to double the dose of oxotremorine inducing a predetermined (grade 2) tremor intensity in mice. Type of experiment: functional.
The species named for experiment [7] is Cavia porcellus. Nature of the experiment: Equipotent molar ratio relative to that of carbachol, which equals 1, in guinea pig ileum. It is filed as functional.

Some results are limits rather than exact numbers.

The text below walks through data of ChEMBL document CHEMBL1124056, “Derivatives of the muscarinic agent N-methyl-N-(1-methyl-4-pyrrolidino-2-butynyl)acetamide” (J Med Chem, 1988).

The Kd is the equilibrium constant for the complex coming apart. The low end stands for higher affinity, the high end for lower affinity. For orientation: EC50 means the concentration at which the effect is half-maximal. On to `CN(C)CC#CCN1C(=O)CCC1=O`, for which the Tremorolytic dose result in experiment [1] is “Agonist”. The same compound came in with a Kd in experiment [2] of 208 µM. Further, a half-maximal effect in experiment [3] (EC50) was put at 2.5 µM. This compound also showed an Emax in experiment [4] of 1.01. Besides, in experiment [5], the Relative efficacy came out at 0.35.

For the compound `CN(CC#CCN1CCCC1)C(=O)C(F)(F)F`, in experiment [2], the Kd amounted to 15.6 µM. Moreover, in experiment [3], the EC50 came out at 16.9 µM. In experiment [6], the Tremorolytic dose turned out to be 150 µM/kg. This compound also returned an Emax in experiment [4] of 0.16. This compound also returned a Relative efficacy in experiment [5] of 0.003. Moreover, the EPMR in experiment [7] is listed as 145.

Compound `CC(C#CCN1CCCC1)N(S(C)(=O)=O)S(C)(=O)=O` (configuration not stated) yielded a Kd in experiment [2] of 5.4 µM. In experiment [6], the Tremorolytic dose stood at 157 µM/kg.

As for `CC(=O)N(CC#CCN1CCCC1)C(C)=O`, the Kd in experiment [2] was 0.44 µM. The Tremorolytic dose in experiment [6] was determined as 2.9 µM/kg. Besides, the Emax in experiment [4] amounted to 0.

On to `CC(=O)N(C)CC#CCN1CCCC1`, for which the Kd in experiment [2] turned out to be 2.2 µM. This compound also had an EC50 in experiment [3] of 0.069 µM. The compound further displayed an Emax in experiment [4] of 1.01. In addition, the Relative efficacy in experiment [5] stood at 0.15.

`CC(C#CCN(C)C)N(C)C(=O)C(F)(F)F` (configuration not stated) returned a Kd in experiment [2] of 95.4 µM. In experiment [6], this compound gave a Tremorolytic dose of over 200 µM/kg. Also, the Emax in experiment [4] is under 0.1.

In experiment [2], `CC(=O)N(CC#CCN(C)C)C(C)=O` showed a Kd of 65.6 µM. Also, the response in experiment [3] was half-maximal at 38.8 µM (EC50). Moreover, the Tremorolytic dose in experiment [6] was over 200 µM/kg. This compound gave an Emax in experiment [4] of 0.84. Moreover, in experiment [5], the Relative efficacy is listed as 0.013. Besides, the EPMR in experiment [7] worked out at 320.

Regarding `O=C1CCC(=O)N1CC#CCN1CCCC1`, the Kd in experiment [2] is 5 µM. This compound returned an EC50 in experiment [3] of 1 µM. For the same compound, the Tremorolytic dose in experiment [6] was found to be 23 µM/kg. In addition, in experiment [4], the Emax came to 0.98. In experiment [5], this compound registered a Relative efficacy of 0.027.

With `CC(=O)N(CC#CCN1CCCC1)S(C)(=O)=O`, the Kd in experiment [2] is 17.9 µM. Also, the Tremorolytic dose in experiment [6] is over 200 µM/kg.

The compound `CC(C#CCN1CCCC1)N(C)S(C)(=O)=O` (configuration not stated) yielded an equilibrium dissociation constant (Kd) in experiment [2] of 13 µM. Besides, the Tremorolytic dose in experiment [6] stood at 82 µM/kg.

Compound `CC(=O)N(C(C)=O)C(C)C#CC[N+](C)(C)C` (configuration not stated) gave a Kd in experiment [2] of 8.6 µM. In experiment [3], this compound showed a half-maximal effective concentration (EC50) of 1.2 µM. In addition, the Emax in experiment [4] was 1.01. The same compound came in with a Relative efficacy in experiment [5] of 0.055. Also, in experiment [7], the EPMR is listed as 10.7.

Take `CC(=O)N(C(C)C#CCN1CCCC1)S(C)(=O)=O` (configuration not stated): the Kd in experiment [2] was 3.1 µM. Moreover, the Tremorolytic dose in experiment [6] was determined as 99.7 µM/kg.

Take `CC(=O)N(C)C(C)C#CCN1CCCC1` (configuration not stated): the Kd in experiment [2] was 0.24 µM. The compound also returned an EC50 in experiment [3] of 0.19 µM. Also, the Tremorolytic dose in experiment [6] was 0.6 µM/kg. The compound also returned an Emax in experiment [4] of 0.83. The Relative efficacy in experiment [5] was 0.013.

`CCN(CC)CC#CC(C)N(C(C)=O)C(C)=O` (configuration not stated) returned a dissociation constant (Kd) in experiment [2] of 1.6 µM. This compound also returned a Tremorolytic dose in experiment [6] of 39 µM/kg. In experiment [4], the Emax is given as 0.

In experiment [2], `CN(CC#CCN1CCCC1)S(C)(=O)=O` registered a Kd of 68 µM. In experiment [6], this compound gave a Tremorolytic dose of 174 µM/kg.

Regarding `CCN(CC)CC#CCN(C(C)=O)C(C)=O`, the Kd in experiment [2] is 7.2 µM. Moreover, the Tremorolytic dose in experiment [6] turned out to be 107 µM/kg. Besides, the Emax in experiment [4] was found to be 0.

Consider `CS(=O)(=O)N(CC#CCN1CCCC1)S(C)(=O)=O`, for which the Kd in experiment [2] worked out at 15.9 µM. The Tremorolytic dose in experiment [6] was over 200 µM/kg.

`CC(C#CC[N+](C)(C)C)N(C)C(=O)C(F)(F)F` (configuration not stated) came in with a Kd in experiment [2] of 91.9 µM. The same compound registered an EC50 in experiment [3] of 27.1 µM. Besides, the Emax in experiment [4] amounted to 0.89. The compound further showed a Relative efficacy in experiment [5] of 0.026. For the same compound, the EPMR in experiment [7] is 214.

`CC(C#CCN1CCCC1)N1C(=O)CCC1=O` (configuration not stated): in experiment [2], the Kd is 0.15 µM. Besides, the Tremorolytic dose in experiment [6] came out at 1.2 µM/kg.

`CC(=O)N(CC#CC[N+](C)(C)C)C(C)=O`: the Kd in experiment [2] was found to be 8.2 µM. This compound also gave an EC50 in experiment [3] of 2 µM. The compound also registered an Emax in experiment [4] of 1. This compound came in with a Relative efficacy in experiment [5] of 0.034. The EPMR in experiment [7] is 19.3.

Compound `CC(=O)N(C(C)=O)C(C)C#CCN(C)C` (configuration not stated) came in with a Kd in experiment [2] of 21.6 µM. This compound yielded an EC50 in experiment [3] of 5.5 µM. In experiment [6], this compound returned a Tremorolytic dose of 109 µM/kg. In experiment [4], the Emax was 0.99. This compound came in with a Relative efficacy in experiment [5] of 0.03. Also, in experiment [7], the EPMR came out at 57.9.

In experiment [3], `C[N+](C)(C)CCOC(N)=O.[Cl-]` [CARBACHOL] returned an EC50 of 0.11 µM. In experiment [4], this compound displayed an Emax of 1. In experiment [7], the EPMR came to 1.

`CC(C#CCN1CCCC1)N(C)C(=O)C(F)(F)F` (configuration not stated) returned a Kd in experiment [2] of 0.57 µM. The compound also returned a Tremorolytic dose in experiment [6] of 21.4 µM/kg. In addition, the Emax in experiment [4] was determined as 0.

As to `CC(=O)N(C(C)=O)C(C)C#CCN1CCCC1` (configuration not stated), the Kd in experiment [2] turned out to be 0.28 µM. In experiment [6], this compound had a Tremorolytic dose of 3.2 µM/kg. The compound also displayed an Emax in experiment [4] of 0.
